This is an account of results in paper PMC4456413, “Trypanothione Reductase: A Target Protein for a Combined In Vitro and In Silico Screening Approach” (PLoS Neglected Tropical Diseases, 2015).

Data set [1] concerns the target T1, T. cruzi TR (Trypanosoma cruzi, UniProt P28593).
T1 construct: made in house
Description: biochemical. On the procedure:
(§1) The compounds used in the enzymatic inhibitory testing and the in silico screening were available as stock solutions in DMSO or in solid from a compound library maintained at MSD. All IC50 determinations were performed starting from solid material. Recombinant T. cruzi TR (CL strain) was prepared using a published expression system. TS2 was prepared enzymatically as described previously. For antiparasitic studies, culture-adapted bloodstream T. brucei parasites of cell line 449 were used. These cells are descendants of strain Lister 427 stably transfected with the gene for the tetracycline repressor.
The kinetic analysis of TR was performed in 384-well plates (Greiner Bio-One GmbH, Frickenhausen, Germany). The reaction mixture (50 μl) contained 5 mU/ml TR, 40 mM Hepes, pH 7.5, 1 mM EDTA, 300 μM NADPH (Sigma-Aldrich), 0.1 mg/ml BSA, and 0.01% Pluronic (BASF). […] In a volume of 30 μl, the assay components and the inhibitor were pre-incubated for 30 minutes and the reaction started by adding 20 μl of 375 μM TS2 resulting in final concentrations of 150 μM TS2 and 2% DMSO. The absorption decrease at 340 nm was measured by start and end point determination resulting in a delta of the optical density (delta A) for 30 min. All experiments were performed at room temperature. The TR concentration was kept constant at 5 mU/ml for all types of experiments. Therefore, after an initial calculation of the turnover number (kcat), only delta A values under identical conditions were compared. Initial screening was performed twice in two independent experiments.
Eleven compound concentrations were used ranging from 100–0.01 μM or 200–0.004 μM. The compounds were freshly dissolved in DMSO. All measurements were performed twice in three independent series. Enzyme activities were plotted versus increasing inhibitor concentrations. IC50 values were calculated using the four-parameter equation model 205 and the option “unlock” from the XLfit add-in (IDBS, Guildford, United Kingdom) in Excel (Microsoft Corporation, Redmond, WA).
A robust NADPH-linked photometric assay was chosen that firstly had to be adapted to the high throughput screening format. The assay volume was reduced from the 1 ml cuvette format to 50 μl total volume in 384 well plates. […] In order to stabilize the enzyme and to prevent adhesion and reduce surface tension as well as the formation of droplets in the small wells, 0.1 mg/ml BSA and 0.01% detergent (Pluronic) were added to the reaction mixture.

For data set [2], the target named is T1, T. cruzi TR. Description: Ki determination and inhibition type on TR. Type of data set: biochemical. As to conditions: for binding mode (inhibition type): SigmaPlot Enzyme Kinetics Module; for Ki (Fig 7, uncompetitive mode of inhibition assumed): mean of two independent experiments, no unit printed in the figure, in µM. On the procedure: The kinetic analysis of TR was performed in 384-well plates (Greiner Bio-One GmbH, Frickenhausen, Germany). The reaction mixture (50 μl) contained 5 mU/ml TR, 40 mM Hepes, pH 7.5, 1 mM EDTA, 300 μM NADPH (Sigma-Aldrich), 0.1 mg/ml BSA, and 0.01% Pluronic (BASF). The detergent was used to prevent the formation of droplets during pipetting and had no negative effects on the assay kinetics. In a volume of 30 μl, the assay components and the inhibitor were pre-incubated for 30 minutes and the reaction started by adding 20 μl of 375 μM TS2 resulting in final concentrations of 150 μM TS2 and 2% DMSO. The absorption decrease at 340 nm was measured by start and end point determination resulting in a delta of the optical density (delta A) for 30 min. All experiments were performed at room temperature. The TR concentration was kept constant at 5 mU/ml for all types of experiments. Therefore, after an initial calculation of the turnover number (kcat), only delta A values under identical conditions were compared. Initial screening was performed twice in two independent experiments.
Measurements were performed at 60, 80, 120, and 200 μM TS2 and five inhibitor concentrations resulting in 20 different data points per inhibitor. […] SigmaPlot 10 (Systat Software, Inc., San Jose, USA) with the Enzyme Kinetics Module was used to evaluate the inhibition type and Ki values. This software automatically estimates the initial parameters for different fit models, and uses the Marquardt-Levenberg algorithm to determine the parameter values. A detailed statistical report as well as a data report is generated to compare multiple models and graphs. Based on these statistics, the appropriate binding model can be selected. Graphs are created based on the models and the calculated parameter values instead of fitting each individual inhibitor concentration curve.

Data set [3] has as its target T1, T. cruzi TR. Description: Mode of inhibition study: reversibility of binding (Amicon filter wash-out, then standard TR assay). Type of data set: biochemical.
Description: Therefore, Amicon Ultra 0.5 ml centrifugal filters with a cut-off of 10,000 MW (Millipore Corporation, Billerica, MA, USA) were washed with 400 μl TR assay buffer and centrifuged for 5 min at 12,500 rpm at room temperature. Remaining buffer was removed by placing the filter upside down into a microcentrifuge tube and centrifugation at 3,500 rpm for 2 min. […] The filter was centrifuged for 15 min at 12,500 rpm, washed three times with 400 μl buffer and centrifuged again. The retentate was collected by placing the filter upside down on a new tube and centrifugation at 3,500 rpm for 2 min. The recovered protein solutions were subjected to a standard TR assay.
A reaction mixture containing TR, inhibitor and NADPH was incubated for 30 minutes. […] Afterwards, the protein was separated from the low molecular mass components by centrifugation in an Amicon tube. Inhibitors with a reversible binding mode would be washed out, whereas irreversible binders remain bound to the protein. Finally, the recovered protein solution was subjected to a standard assay to determine the remaining activity. Two controls were run to determine the maximum activity that could be recovered. One contained the protein assay mixture without inhibitor, while the second control was a mixture of TR and the reversible inhibitor chlorhexidine. […] Subsequently the inhibitor type and constants were determined.
In data set [4] the test system is bloodstream T. brucei (strain 449). Description: Cell culture activity determination by counting living cells. Type of data set: cell-based. As to conditions: for EC50: Trypanosoma brucei, read-out: EC50, inhibition of parasite proliferation (living cells counted). The method, then: as §1
Compounds were dissolved in DMSO to 10 mM stock solutions and added to bloodstream T. brucei (strain 449) in concentrations of 100, 50, 5, 0.5, and 0.05 μM in 24-well plates. The final DMSO content in the cultures was 1, 0.5, 0.05, 0.005 and 0.0005%, respectively. The initial cell density was 2500 cells/ml. After 48 h and 72 h incubation at 37°C in HMI-9 medium, viable cells were counted in a Neubauer chamber. The assay was performed in triplicate. The parasite strain and the culture conditions are described in the literature.

The target of another data set is TR. The arrangement: method as in ref 39 (mepacrine), 42 (BG237), 43 (chlorhexidine). The conditions noted are these: published data used for assay validation; ref 39 (mepacrine), 42 (BG237), 43 (chlorhexidine); cited from earlier work.
On the set-up of data set [5]: method as in ref 47 = [47]; 47 PubChem (2014) Chlorhexidine (CID 9552079), sections “Biomedical Effects and Tixicity” and “Biomolecular Interactions and Pathways”. Available: http://pubchem.ncbi.nlm.nih.gov/summary/summary.cgi?c. The conditions noted are these: in words; cited from earlier work.
The test system of data set [6] is bloodstream T. brucei wild-type cells. Description: EC50 determination by ATPlite 1step assay, wild-type cells. As to conditions: Trypanosoma brucei. Type of data set: cell-based. The method, then:
(§2) The ATPlite 1step assay system (PerkinElmer, Waltham, MA, USA) was used as described in Füller et al. to quantify T. brucei survival in medium-throughput dose-response series. Experiments were conducted in 96-well microplates (PerkinElmer, Waltham, MA, USA), each well containing 90 μl cell-culture and 10 μl compound. Initial cell densities were 2500 cells/ml. […] Unfortunately, compound 3 was no longer available for testing. […] For each compound, three identical plates were prepared, incubated at 37°C and analyzed after 24 h, 48 h, and 72 h, respectively. Samples from each cell-line left untreated were added to the plates prior to each measurement as additional controls. 50 μl of the ATPlite 1step solution (PerkinElmer, Waltham, MA, USA) were added to each well and the relative luminescence was measured immediately using a VICTOR Multilabel Plate Reader (PerkinElmer, Waltham, MA, USA) at room temperature. The values obtained were plotted against the logarithmic compound concentrations. A dose-response curve was generated from which EC50-values were calculated using the program PRISM 5.0 (GraphPad Software, La Jolla, CA, USA).
(§3) The parasites were cultured in the presence of different concentrations of the compounds and after 48 h and 72 h living cells were counted. […] The assay is based on the emission of light caused by the reaction of ATP with D-luciferin in the presence of luciferase, which is proportional to the amount of ATP serving as a marker for cell viability. […] Unfortunately, the T. brucei strain allowing the down-regulation of TR which was generated more than a decade ago in the laboratory of Christine Clayton is not available anymore. Therefore, this tet-inducible overexpressing system leading to up to three fold higher TR levels had to be used instead. Wild-type cells treated with 1 μg/ml tetracyclin were included to exclude any effect of the antibiotic on parasite proliferation.
For orientation: ATP-based viability assays read luminescence as a measure of living cells.

The subject of data set [7] is T. brucei parasites transfected with pHD1700-TbTR (TR-Over-expressing cells). Description: EC50 determination by ATPlite 1step assay, TR-over-expressing cells. Type of data set: cell-based. The conditions noted are these: Trypanosoma brucei. The method, then:
as §2, §3

The next data set concerns T. brucei. As to conditions: read-out: EC50, inhibition of proliferation of T. brucei; cited from earlier work.
[8] abbreviates: HTS format, Ki ± SD (n = 3), Table 1, read-out: Ki Measured.
[9] abbreviates: 60-200 μM TS2, two independent experiments.
[10] abbreviates: 60-200 μM TS2, two independent experiments, read-out: Ki, assumed inhibitor type competitive.
[11] abbreviates: 60-200 μM TS2, two independent experiments, read-out: Ki, assumed inhibitor type noncompetitive.

Read-outs that look alike come from different tables or passages of the source. A value given as a limit tells only on which side of the number the result lay.

T1 sequence (P28593 whole entry): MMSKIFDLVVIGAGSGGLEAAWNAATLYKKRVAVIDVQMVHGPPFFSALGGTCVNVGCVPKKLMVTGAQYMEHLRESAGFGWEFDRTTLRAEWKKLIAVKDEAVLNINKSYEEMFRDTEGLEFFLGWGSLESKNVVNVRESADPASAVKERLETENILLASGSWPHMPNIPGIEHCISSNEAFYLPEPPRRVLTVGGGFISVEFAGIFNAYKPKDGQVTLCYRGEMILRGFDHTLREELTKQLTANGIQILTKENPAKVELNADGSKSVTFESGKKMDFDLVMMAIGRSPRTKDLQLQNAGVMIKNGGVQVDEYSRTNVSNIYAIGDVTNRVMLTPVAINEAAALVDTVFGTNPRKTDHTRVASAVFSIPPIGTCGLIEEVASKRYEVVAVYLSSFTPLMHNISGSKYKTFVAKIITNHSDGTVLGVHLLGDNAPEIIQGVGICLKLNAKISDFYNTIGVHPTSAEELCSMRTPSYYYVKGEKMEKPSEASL

In general, IC50 refers to the concentration needed to halve the response being measured. Low values mean inhibition by little substance, high ones a need for much substance. The Ki is a dissociation constant, usually derived from enzyme kinetics or from competition with a known ligand. `[H]/N=C(\N/C(=N/[H])NCCCCCCNC(=N)NC(=N)Nc1ccc(Cl)cc1)Nc1ccc(Cl)cc1` [Chlorhexidine, reference compound] came in with an IC50 at T. cruzi TR [1] of 26 ± 2 µM. Moreover, the inhibition constant (Ki) was 4 ± 1 µM on T. cruzi TR [2] (setting [8]) and 2 µM on TR. Moreover, the “binding mode (inhibition type)” value at T. cruzi TR [2] was “competitive binding mode”. Further, the “reversible or irreversible binding to the enzyme” value on T. cruzi TR [3] (100 μM inhibitor, 300 μM NADPH, 30 min incubation, wash-out) is listed as “reversible”. The “TR activity recovered compared to the initial kinetics” value at T. cruzi TR [3] (after wash-out of the inhibitor) is given as 70–80%. For the same compound, the EC50 in data set [4] lay within 0.1 to 0.2 µM. For the same compound, the “permeability described in pharmacokinetic studies” value in data set [5] is given as “poor permeability”.

As for `O=C(Nc1ccccc1)OCCSc1ccc([N+](=O)[O-])c2nonc12` [Compound 1], at T. cruzi TR [1], the half-inhibitory concentration (IC50) was determined as 0.27 ± 0.01 µM. Besides, the “Ki, assumed inhibitor type uncompetitive” value on T. cruzi TR [2] (setting [9]) came to 0.23 ± 0.02 µM. Moreover, the values for the inhibition constant (Ki) on T. cruzi TR [2] (setting [10]) and at T. cruzi TR [2] (setting [11]) were 0.06 ± 0.03 µM and 0.33 ± 0.03 µM, respectively. Moreover, the “Ki (Fig 7, uncompetitive mode of inhibition assumed)” value at T. cruzi TR [2] is 0.23 ± 0.02.

As to `O=[N+]([O-])c1c(Sc2ncnc3ccccc23)cc(Cl)c2nsnc12` [Compound 2], the concentration for half-maximal inhibition (IC50) against T. cruzi TR [1] worked out at 0.58 ± 0.09 µM. For the same compound, at T. cruzi TR [2] (setting [9]), the “Ki, assumed inhibitor type uncompetitive” value amounted to 0.88 ± 0.08 µM. The Ki at T. cruzi TR [2] (setting [10]) amounted to 0.26 ± 0.12 µM; at T. cruzi TR [2] (setting [11]), 1.3 ± 0.12 µM. At T. cruzi TR [2], the “Ki (Fig 7, uncompetitive mode of inhibition assumed)” value is 0.88 ± 0.08. The EC50 in data set [4] was 5 to 50 µM; in data set [6] (read-out: EC50 24 h, Wild-type cells, ATPlite, 24 h, mean ± SD of three series), 56.4 ± 2 µM; in data set [6] (read-out: EC50 48 h, Wild-type cells, ATPlite, 48 h, mean ± SD of three series), 33 ± 2.2 µM; in data set [6] (read-out: EC50 at 24 h (ATPlite), 24 h, cell type not given), 42 µM; in data set [6] (read-out: EC50 at 48 h (ATPlite), 48 h, cell type not given) it was 42 µM; in data set [6] (72 h, cell type not given, read-out: EC50 after 72 h (ATPlite)), 58 µM. Moreover, the EC50 in data set [6] (ATPlite, 72 h, series containing up to 150 μM compound = 1.5% DMSO, which affects cell viability, read-out: EC50 72 h, Wild-type cells) was 55.9 ± 1.3 µM; in data set [7] (24 h, read-out: EC50 24 h, TR-Over-expressing cells) it was 37.6 ± 1.9 µM; in [7] (48 h, read-out: EC50 48 h, TR-Over-expressing cells), 46.9 ± 3.1 µM; in [7] (72 h, read-out: EC50 72 h, TR-Over-expressing cells), 82 ± 1.6 µM.

Turning to `O=[N+]([O-])c1c(Cl)cc(Cl)c2nsnc12` [Compound 3], half-maximal inhibition against T. cruzi TR [1] (IC50) required 0.61 ± 0.09 µM. Also, on T. cruzi TR [2] (setting [9]), the “Ki, assumed inhibitor type uncompetitive” value was determined as 0.64 ± 0.06 µM. Besides, the inhibitory constant (Ki) on T. cruzi TR [2] (setting [10]) is 0.15 ± 0.09 µM; on T. cruzi TR [2] (setting [11]), 0.91 ± 0.08 µM. Also, at T. cruzi TR [2], the “Ki (Fig 7, uncompetitive mode of inhibition assumed)” value is 0.64 ± 0.06. Besides, the EC50 in [4] lay within 5 to 50 µM.

`NS(=O)(=O)c1ccc(Nc2cc(Cl)c3nonc3c2[N+](=O)[O-])cc1` [Compound 4] came in with an IC50 at T. cruzi TR [1] of 0.48 ± 0.02 µM. The “Ki, assumed inhibitor type uncompetitive” value at T. cruzi TR [2] (setting [9]) worked out at 0.80 ± 0.10 µM. In addition, the Ki at T. cruzi TR [2] (setting [10]) turned out to be 0.19 ± 0.07 µM; on T. cruzi TR [2] (setting [11]), 1.11 ± 0.13 µM. In addition, the “Ki (Fig 7, uncompetitive mode of inhibition assumed)” value at T. cruzi TR [2] is reported as 0.80 ± 0.10. Besides, in [4] (after 48 h and 72 h), the “EC50, inhibition of parasite proliferation (living cells counted)” value is reported as “not active”.

With `CCN(CC)CCCC(C)Nc1c2ccc(Cl)cc2nc2ccc(OC)cc12` (stereo not shown) [Mepacrine, reference compound], the IC50 against T. cruzi TR [1] was more than 200 µM. The Ki at T. cruzi TR [2] (setting [8]) was 20 ± 5 µM; at T. cruzi TR [2] (three independent experiments, fitted to the relevant binding model, read-out: measured Ki (Lineweaver-Burk plots, Fig 3)), 20.7 ± 5.47 µM; on TR, 19 µM. Besides, at T. cruzi TR [2], the “binding mode (inhibition type)” value was “competitive binding mode”.

In the case of `CC1CS(=O)(=O)CCN1/N=C/c1ccc([N+](=O)[O-])o1` (stereo not shown) [nifurtimox], the EC50 with T. brucei is 2.5 µM.
